{"source": "patent EP4725956A1", "about": "“MODIFIED POLYPEPTIDE AND USE THEREOF IN FIELD OF ANALGESIA” (Nanjing Anji Biotechnology Co., Ltd., priority 2023, dated 2024)", "assay_type_in_all_cases": "in vivo", "key": {"rat CCI model": {"system": "rat CCI model", "assay": "Rat CCI (chronic constriction injury) model (Example 9)", "conditions": "1 mg/kg s.c. (AJ003; AJ003-36 medium dose)", "source_text": "Neuropathic pain has many types, and animal models can simulate clinical neuropathic pain. Common SD rat sciatic nerve neuropathic pain models include CCI (Chronic Constriction Injury), SNI (Spared Nerve Injury), SNL (Spinal Nerve Ligation), and CCD (using stainless steel wire through the intervertebral foramen to fix and compress the dorsal root ganglion). Among them, the CCI model is widely used to study neuropathic pain, providing a basis for further research on mechanisms and strategies for nerve injury repair (Wen Xiaojun, Medical Information, Jan. 2018, Vol. 31, No.1). In this example, the CCI model was employed.\nExcept for the control group, the remaining SD rats were anesthetized via intraperitoneal injection of 10% chloral hydrate saline solution at a dose of 0.3 mL per 100 g body weight, and surgical modeling was performed. The right hind limb skin was carefully incised, muscles were separated, and the sciatic nerve was ligated three times using 4-0 surgical silk, spaced 1 mm apart. Muscles and skin were sutured, and antibiotics were applied to the wound to prevent infection. […] Approximately 10 days post-surgery, plantar pain thresholds were measured three times for each rat, and the average value was calculated. Rats were randomly assigned to groups based on pain thresholds. Drug administration was performed according to Table 8, and plantar pain thresholds were measured at 2 h, 4 h, 6 h, and 8 h after administration."}, "[1]": {"system": "mouse oxaliplatin-induced acute chemotherapy pain model", "assay": "Mouse oxaliplatin chemotherapy pain model, different doses (Example 7)", "conditions": "2 mg/kg s.c. (AJ003; AJ003-36 medium dose)", "procedure": "Oxaliplatin was dissolved in 5% glucose solution to a concentration of 1 mg/mL. For model induction, each male C57 mouse (Hangzhou Ziyuan Experimental Animal Technology Co., Ltd.) received a single intraperitoneal injection of oxaliplatin at 10 mg/kg. Mice in the negative control or blank control group received 5% glucose solution. Approximately one week after model induction, mechanical pain thresholds of the mice were measured three times per mouse, and the average value was calculated. Mice were then randomly assigned to groups based on their pain thresholds. Drug administration was carried out according to the dosing schedule shown in Table 6, with a single dose per mouse. Mechanical pain thresholds were measured at 0.5, 1, 2, 4, 6, and 8 h post-dose. […] Table 6 Dosing Scheme for Oxaliplatin Chemotherapy Pain Model"}, "[2]": {"system": "mouse diabetic neuropathic pain model", "assay": "Mouse diabetic neuropathic pain model (Example 10)", "conditions": "2 mg/kg s.c. (AJ003; AJ003-36 medium dose)", "procedure": "Except for the control group, the remaining male C57 mice (Hangzhou Ziyuan Experimental Animal Technology Co., Ltd.) were continuously fed a high-sugar, high-fat diet for approximately ten weeks. For the model group, mice were fasted overnight, and streptozotocin (STZ) (Sann Chemical Technology (Shanghai) Co., Ltd.) was dissolved in sodium citrate-citric acid buffer solution and intraperitoneally injected at a dose of 70 mg/kg. About two weeks after STZ injection, the mechanical pain threshold of mice was measured. Mice were placed on a perforated wire mesh for adaptation, and the plantar surface of the right hind paw was vertically stimulated with a blunt needle. Pain threshold data were collected using a biosignal acquisition system. Each mouse was measured three times, and the average value was calculated. Mice were then randomly assigned to groups based on their pain thresholds for drug administration.\nDay 1 of dosing: Drug administration was performed according to Table 9. Mechanical pain thresholds of the plantar surface were measured at 0 h, 2 h, 4 h, 6 h, and 8 h after administration."}}, "note": "Positions of bridges follow the written chain, without caps; N, C: chain ends. Non-standard residues stand in square brackets, D forms with d. Residues, ends and D or L forms follow the SMILES beside them."}
{"smiles": "CC(C)C[C@H](NC(=O)[C@@H](NC(=O)[C@H]1CSSC[C@H](NC(=O)[C@H](CO)NC(=O)CN)C(=O)N[C@@H](CO)C(=O)N[C@@H]([C@@H](C)O)C(=O)N2CCC[C@H]2C(=O)N2CCC[C@H]2C(=O)N[C@@H](CO)C(=O)N1)C(C)C)C(=O)N[C@@H](Cc1ccc(O)cc1)C(=O)N[C@@H](CO)C(=O)O", "note": "[AJ003, GSCSTPPS-(D-Cys)-VLYS (disulfide bond between positions 3 and 9)] (H-GSCSTPPS[dC]VLYS-OH; disulfide 3-9)", "values": [{"measurement": "analgesic activity compared with the model group (mechanical pain threshold)", "setting": "rat CCI model; Day 1 of dosing, 2 h and 4 h", "result": "significant analgesic activity"}, {"measurement": "analgesic activity compared with the model group (mechanical pain threshold)", "setting": "rat CCI model; Day 1 of dosing, 6 h", "result": "no significant difference"}, {"measurement": "analgesic activity compared with the model group (mechanical pain threshold)", "setting": "rat CCI model; Day 1 of dosing, 8 h", "result": "not significantly different"}, {"measurement": "analgesic activity compared with the model group (mechanical pain threshold)", "setting": "rat CCI model; Day 4 of dosing, 2 h and 4 h", "result": "significant analgesic activity"}, {"measurement": "analgesic activity compared with the model group (mechanical pain threshold)", "setting": "rat CCI model; Day 4 of dosing, 6 h and 8 h", "result": "no longer significant"}, {"measurement": "analgesic activity compared with the model group (mechanical pain threshold)", "setting": "rat CCI model; Day 7 of dosing, 2 h and 4 h", "result": "significant analgesic activity"}, {"measurement": "analgesic activity compared with the model group (mechanical pain threshold)", "setting": "rat CCI model; Day 7 of dosing, 6 h", "result": "no significant effect"}, {"measurement": "analgesic activity compared with the model group (mechanical pain threshold)", "setting": "rat CCI model; Day 7 of dosing, 8 h", "result": "not significant"}, {"measurement": "analgesic activity compared with the model group (mechanical pain threshold)", "setting": "rat CCI model; Day 10 of dosing, 2 h and 4 h", "result": "significant analgesic activity"}, {"measurement": "analgesic activity compared with the model group (mechanical pain threshold)", "setting": "rat CCI model; Day 10 of dosing, 6 h", "result": "no significant effect"}, {"measurement": "analgesic activity compared with the model group (mechanical pain threshold)", "setting": "rat CCI model; Day 10 of dosing, 8 h", "result": "not significant"}, {"measurement": "analgesic activity compared with the model group (mechanical pain threshold)", "setting": "rat CCI model; Day 14 of dosing, 2 h and 4 h", "result": "significant analgesic activity"}, {"measurement": "analgesic activity compared with the model group (mechanical pain threshold)", "setting": "rat CCI model; Day 14 of dosing, 6 h", "result": "no significant effect"}, {"measurement": "analgesic activity compared with the model group (mechanical pain threshold)", "setting": "rat CCI model; Day 14 of dosing, 8 h", "result": "not significant"}, {"measurement": "analgesic activity compared with the model group (mechanical pain threshold)", "setting": "[1]; single dose, 0.5, 1, 2 and 4 h post-dose", "result": "significant analgesic activity"}, {"measurement": "analgesic activity compared with the model group (mechanical pain threshold)", "setting": "[1]; single dose, 6 h post-dose", "result": "no significant effect"}, {"measurement": "analgesic activity compared with the model group (mechanical pain threshold)", "setting": "[1]; single dose, 8 h post-dose", "result": "no significant effect"}, {"measurement": "analgesic activity compared with the model group (mechanical pain threshold)", "setting": "[2]; Day 1 of dosing, 2 h and 4 h", "result": "significant analgesic activity"}, {"measurement": "analgesic activity compared with the model group (mechanical pain threshold)", "setting": "[2]; Day 1 of dosing, 6 h and 8 h", "result": "did not show significant differences"}, {"measurement": "analgesic activity compared with the model group (mechanical pain threshold)", "setting": "[2]; Day 4 of dosing, 2 h and 4 h", "result": "significant analgesic activity"}, {"measurement": "analgesic activity compared with the model group (mechanical pain threshold)", "setting": "[2]; Day 4 of dosing, 6 h and 8 h", "result": "no significant difference"}, {"measurement": "analgesic activity compared with the model group (mechanical pain threshold)", "setting": "[2]; Day 8 of dosing, 2 h and 4 h", "result": "significant analgesic activity"}, {"measurement": "analgesic activity compared with the model group (mechanical pain threshold)", "setting": "[2]; Day 8 of dosing, 6 h and 8 h", "result": "no significant difference"}, {"measurement": "analgesic activity compared with the model group (mechanical pain threshold)", "setting": "[2]; Day 14 of dosing, 2 h and 4 h", "result": "significant analgesic activity"}, {"measurement": "analgesic activity compared with the model group (mechanical pain threshold)", "setting": "[2]; Day 14 of dosing, 6 h and 8 h", "result": "did not show significant differences"}]}
